According to PubChem BioAssay (NCI):
Values joined by “and” are separate entries in the source; they are usually repeats but may differ in a detail not shown here. Equal values may be shown once.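 Where inhibition never reached the appropriate level, the endpoint shown equals the highest concentration tested. Otherwise, values were interpolated linearly from a five-concentration, 48-hour dose response in 96-well plates. GI50: concentration for 50% inhibition of growth. TGI denotes the concentration required for complete inhibition of growth.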

Columns and labels:
Experiment in all cases: inhibition of tumour cell growth, NCI panel, 48 h
A498 renal = test system: A498 renal
HOP-92 NSCLC = test system: HOP-92 NSCLC
NCI-H226 lung = test system: NCI-H226 lung
NCI-H23 lung = test system: NCI-H23 lung
RXF 393 renal = test system: RXF 393 renal
SK-OV-3 ovarian = test system: SK-OV-3 ovarian
SN12C renal = test system: SN12C renal
SNB-75 CNS = test system: SNB-75 CNS
SW-620 colon = test system: SW-620 colon
T-47D breast = test system: T-47D breast

Structure (SMILES)	TGI (A498 renal)	TGI (HOP-92 NSCLC)	TGI (NCI-H226 lung)	TGI (NCI-H23 lung)	TGI (RXF 393 renal)	TGI (SK-OV-3 ovarian)	TGI (SN12C renal) [µM]	TGI (SNB-75 CNS) [µM]	TGI (SW-620 colon) [µM]	TGI (T-47D breast) [µM]	GI50 (A498 renal)	GI50 (HOP-92 NSCLC) [µM]	GI50 (NCI-H23 lung) [µM]	GI50 (RXF 393 renal) [µM]	GI50 (SK-OV-3 ovarian)	GI50 (SN12C renal) [µM]	GI50 (SNB-75 CNS)	GI50 (SW-620 colon) [µM]	GI50 (T-47D breast) [µM]	GI50 (NCI-H226 lung) [µM]
COc1cc2c(c3oc4c(O)cccc4c(=O)c13)CC(C(C)(O)CCl)O2 (stereo not drawn)	37.3 µM	10.5 µM	24.2 µM	6.14 µM	2.43 µM	17.9 µM	2.4	8.18	3.74	13.5										
C=C1C(C)C2C(Cc3ccccc3)NC(=O)C23C(OC(C)=O)C=CC(C)(O)C(=O)C(C)C/C=C/C3C1O (stereo not drawn)	1.47 µM and 13.9 µM	2.45 µM and 1.21 µM	51.4 µM and > 500 µM	82.2 µM and 259 µM	1.55 µM and 1.04 µM	49.5 µM and 76.1 µM	499		> 500	> 357	0.202 µM and 0.05 µM	0.171	15.6	0.0604	0.0761 µM and 0.23 µM	14.9	0.0218 µM and 0.05 µM	> 500	5.14	
O=C1c2ccccc2C(=O)c2c1ccc1c3ccccc3n(-c3ccccc3)c21	71.9 µM	11.7 µM	44.1 µM	34 µM	34.2 µM	> 100 µM	32.3	44.9	48	45.5										
C=C(CN1CCN(c2cc(C(F)(F)F)cc(C(F)(F)F)c2)CC1)c1ccc(C(=O)Nc2ccccc2N)cc1	14.4 µM	7.45 µM	> 100 µM	72.1 µM	7.71 µM	> 100 µM	13.4	18.5	34.9	> 100	2.04 µM	1.88	14.2	2.02	25.7 µM	2.47	3.44 µM	6.95	8.97	9.89
CSc1ccc(-c2cn3ccsc3n2)cc1	> 100 µM	> 78.9 µM	98.1 µM	> 100 µM	> 92 µM	> 100 µM	> 100	74	> 100	> 100	55.6 µM	6.81	19.3	5.19	59.7 µM	32.2	7.76 µM	14.6	8.53	24.8
CCc1ccc([OH2+])c(C(=O)[O-])c1.CCc1ccc([OH2+])c(C(=O)[O-])c1.CCc1ccc([OH2+])c(C(=O)[O-])c1.CCc1ccc([OH2+])c(C(=O)[O-])c1.[Cu+2].[Cu+2]	40.5 µM	> 100 µM	> 100 µM	> 100 µM	> 94.5 µM	> 68.2 µM	> 100	> 89.3	> 100	> 100	21.2 µM	> 95.9	> 100	> 46.8	23.9 µM	98.3	40.6 µM	> 100	> 100	> 50.2
CC/C(=C/c1ccc(OC)cc1)[N+](=O)[O-]	9.09 µM	3.43 µM	3.86 µM	5.74 µM	3.39 µM	27.5 µM	5.44	15	3.85	5.95	1.87 µM	1.74	2.15	1.85	14.4 µM	2.28	2.83 µM	1.93	1.82	2.07
CNC(=O)c1sc(-n2cnc3cc(OC)c(OC)cc32)cc1OCc1ccccc1C(F)(F)F	> 24 µM	> 25 µM	> 25 µM	> 25 µM	> 25 µM	> 25 µM	> 25	> 25	> 25	> 25	1.39 µM	2.2	> 25	> 25	> 25 µM	> 25	> 15.8 µM	> 25	19.9	22.9
CN(N=O)c1ccc(/C=C/c2ccnc3ccccc23)cc1	> 100 µM	> 100 µM	> 100 µM	> 100 µM	> 100 µM	> 100 µM	> 100	> 100	> 100	> 100										
COc1cccc(/C=C\C(=O)c2ccccc2)c1	26.2 µM	26.2 µM	32.9 µM	44.8 µM	5.34 µM	32.2 µM	25.5	23	7.31	41.3	11.4 µM	6.46	10.4	2.46	15.9 µM	8.97	8.9 µM	2.7	9.72	16.6
